# PubChem BioAssay AID208 (DTP/NCI, 2004)
# Where “and” joins values, the source holds several entries; their conditions need not be identical. Identical values can stand only once. Inconclusive results are not listed.
# Test system: HT29 intrarenal xenograft, nude mice, tumor weight change
# Assay: NCI In Vivo Anticancer Drug Screen. Data for tumor model HT29;CX-1 Human Adenocarcinoma (MER+) (intrarenal inoculation) in NU/NU BALB/C (nude) mice
# Settings: endpoint: mean tumor weight change, higher = larger tumour
# Experimental: The antitumor activity of compounds was measured in mice bearing transplantable tumors. Survival or tumor size were measured and the results are expressed as the measurement made in the treated group (T) divided by the measurement made in the vehicle treated control group (C). The tumor model used in this assay is HT29;CX-1 Human Adenocarcinoma (MER+) (intrarenal inoculation) in NU/NU BALB/C (nude) mice
smiles,measurement,setting,value
Cc1ccc(S(=O)(=O)N/N=C/C(=O)O)cc1,T/C,"dose: 100.0 mg/kg/injection, schedule: Q01DX010 (sc), vehicle: Klucel (hydroxypropylcellulose) (HPC)",87 % of control
same,T/C,"dose: 200.0 mg/kg/injection, schedule: Q01DX010 (sc), vehicle: Klucel (hydroxypropylcellulose) (HPC)",50 % of control
same,T/C,"dose: 400.0 mg/kg/injection, schedule: Q01DX010 (sc), vehicle: Klucel (hydroxypropylcellulose) (HPC)",96 % of control
same,T/C,"dose: 800.0 mg/kg/injection, schedule: Q01DX010 (sc), vehicle: Klucel (hydroxypropylcellulose) (HPC)",106 % of control
N=C(N)c1ccc(/C=C/c2ccc(C(=N)N)cc2O)cc1,T/C,"dose: 75.0 mg/kg/injection, schedule: Q04DX004 (sc), vehicle: water",101 % of control
same,T/C,"dose: 150.0 mg/kg/injection, schedule: Q04DX004 (sc), vehicle: water",86 % of control
CC(O)CCC(=O)c1ccoc1 (stereo not given),T/C,"dose: 3.75 mg/kg/injection, schedule: Q01DX010 (ip), vehicle: saline",97 % of control
same,T/C,"dose: 7.5 mg/kg/injection, schedule: Q01DX010 (ip), vehicle: saline",88 % of control
same,T/C,"dose: 15.0 mg/kg/injection, schedule: Q01DX010 (ip), vehicle: saline",108 % of control
same,T/C,"dose: 30.0 mg/kg/injection, schedule: Q01DX010 (ip), vehicle: saline",89 % of control
CN(C)c1nc(N(C)C)nc(N(C)C)n1,T/C,"dose: 12.5 mg/kg/injection, schedule: Q01DX010 (sc), vehicle: saline with Tween-80",99 % of control
same,T/C,"dose: 50.0 mg/kg/injection, schedule: Q01DX010 (sc), vehicle: saline with Tween-80",79 % of control
same,T/C,"dose: 100.0 mg/kg/injection, schedule: Q01DX010 (sc), vehicle: saline with Tween-80",72 % of control
Oc1cccc2ccccc12,T/C,"dose: 150.0 mg/kg/injection, schedule: Q04DX004 (ip), vehicle: water",63 % of control
OCC1OC(n2cnc3c(=S)nc[nH]c32)C(O)C1O (stereo not given),T/C,"dose: 150.0 mg/kg/injection, schedule: Q04DX004 (sc), vehicle: saline",91 % of control
same,T/C,"dose: 300.0 mg/kg/injection, schedule: Q04DX004 (sc), vehicle: saline",173 % of control
same,T/C,"dose: 600.0 mg/kg/injection, schedule: Q04DX004 (sc), vehicle: saline",103 % of control
CCCNC1=C(C)C(=O)C2=C(C1=O)[C@H](COC(N)=O)[C@]1(OC)[C@@H]3N[C@@H]3CN21,T/C,"dose: 1.5 mg/kg/injection, schedule: Q04DX004 (sc), vehicle: saline",26 % of control
same,T/C,"dose: 3.0 mg/kg/injection, schedule: Q04DX004 (sc), vehicle: saline",91 % of control
same,T/C,"dose: 6.0 mg/kg/injection, schedule: Q04DX004 (sc), vehicle: saline",87 % of control and 91 % of control
same,T/C,"dose: 12.0 mg/kg/injection, schedule: Q04DX004 (sc), vehicle: saline",5 % of control and 26 % of control
Cc1nnc2ncccn12,T/C,"dose: 100.0 mg/kg/injection, schedule: Q04DX004 (sc), vehicle: saline",73 % of control and 84 % of control
same,T/C,"dose: 200.0 mg/kg/injection, schedule: Q04DX004 (sc), vehicle: saline",69 % of control and 84 % of control
same,T/C,"dose: 400.0 mg/kg/injection, schedule: Q04DX004 (sc), vehicle: saline",72 % of control and 76 % of control
O=C(NC1CCCCC1)OCc1c(COC(=O)NC2CCCCC2)c(-c2ccc(Cl)c(Cl)c2)n2c1CCC2,T/C,"dose: 150.0 mg/kg/injection, schedule: Q04DX004 (sc), vehicle: saline with Tween-80",67 % of control
same,T/C,"dose: 300.0 mg/kg/injection, schedule: Q04DX004 (sc), vehicle: saline with Tween-80",60 % of control
same,T/C,"dose: 600.0 mg/kg/injection, schedule: Q04DX004 (sc), vehicle: saline with Tween-80",54 % of control
same,T/C,"dose: 1200.0 mg/kg/injection, schedule: Q04DX004 (sc), vehicle: saline with Tween-80",65 % of control
C=CS(=O)(=O)c1ccccc1,T/C,"dose: 50.0 mg/kg/injection, schedule: Q01DX010 (sc), vehicle: saline",49 % of control
same,T/C,"dose: 100.0 mg/kg/injection, schedule: Q01DX010 (sc), vehicle: saline",82 % of control
CC[C@](O)(C(=O)O)c1cc2n(c(=O)c1CO)Cc1cc3ccccc3nc1-2,T/C,"dose: 31.25 mg/kg/injection, schedule: Q04DX004 (sc), vehicle: saline",39 % of control
CCC1OCC(C(Cl)CCl)O1 (stereo not given),T/C,"dose: 177.0 mg/kg/injection, schedule: Q01DX014 (sc), vehicle: other",57 % of control and 75 % of control
same,T/C,"dose: 267.0 mg/kg/injection, schedule: Q01DX014 (sc), vehicle: other",85 % of control
same,T/C,"dose: 600.0 mg/kg/injection, schedule: Q01DX014 (sc), vehicle: other",61 % of control
same,T/C,"dose: 900.0 mg/kg/injection, schedule: Q01DX014 (sc), vehicle: Klucel (hydroxypropylcellulose) (HPC)",10 % of control
